In patent US10513522B2, “Azetidinyl phenyl, pyridyl or pyrazinyl carboxamide derivatives as JAK inhibitors” (Incyte Corporation, priority 2011, dated 2019):

Tested on: human JAK1 (a.a. 837-1142)
Test: In vitro JAK kinase assay (HTRF, phosphorylation of biotinylated peptide), JAK1
Assay type: biochemical
Details: ratio of IC50 at 1 mM ATP
Procedure: The catalytic activity of JAK1, JAK2 or JAK3 was assayed by measuring the phosphorylation of a biotinylated peptide. The phosphorylated peptide was detected by homogenous time resolved fluorescence (HTRF). […] Reactions were carried out at room temperature for 1 hour and then stopped with 20 μL 45 mM EDTA, 300 nM SA-APC, 6 nM Eu-Py20 in assay buffer (Perkin Elmer, Boston, Mass.). Binding to the Europium labeled antibody took place for 40 minutes and HTRF signal was measured on a Fusion plate reader (Perkin Elmer, Boston, Mass.).

| JAK2/JAK1 | Compound |
| --- | --- |
| A (A means greater than or equal to 10) | C[C@@H](NC(=O)c1ccc(N2CC(CC#N)(n3cc(-c4ncnc5[nH]ccc45)cn3)C2)cc1F)C1CC1 [Example 39, 4-{3-(Cyanomethyl)-3-[4-(7H-pyrrolo[2,3-d]pyrimidin-4-yl)-1H-pyrazol-1-yl]azetidin-1-yl}-N-[(1R)-1-cyclopropylethyl]-2-fluorobenzamide] |
| A (A means greater than or equal to 10) | N#CCC1(n2cc(-c3ncnc4[nH]ccc34)cn2)CN(c2ccc(C(=O)N[C@@H](C3CC3)C(F)(F)F)cc2)C1 [Example 38, 4-{3-(Cyanomethyl)-3-[4-(7H-pyrrolo[2,3-d]pyrimidin-4-yl)-1H-pyrazol-1-yl]azetidin-1-yl}-N-[(1S)-1-cyclopropyl-2,2,2-trifluoroethyl]benzamide] |
| A (A means greater than or equal to 10) | C[C@H](NC(=O)c1cnc(N2CC(CC#N)(n3cc(-c4ncnc5[nH]ccc45)cn3)C2)cn1)C(F)(F)F [Example 31, 5-{3-(Cyanomethyl)-3-[4-(7H-pyrrolo[2,3-d]pyrimidin-4-yl)-1H-pyrazol-1-yl]azetidin-1-yl}-N-[(1S)-2,2,2-trifluoro-1-methylethyl]pyrazine-2-carboxamide] |
| A (A means greater than or equal to 10) | N#CCC1(n2cc(-c3ccnc4[nH]ccc34)cn2)CN(c2cnc(C(=O)N[C@@H](C3CC3)C(F)(F)F)cn2)C1 [Example 42, 5-{3-(Cyanomethyl)-3-[4-(1H-pyrrolo[2,3-b]pyridin-4-yl)-1H-pyrazol-1-yl]azetidin-1-yl}-N-[(1S)-1-cyclopropyl-2,2,2-trifluoroethyl]pyrazine-2-carboxamide] |

Second part, the compound before the results:

| Compound | JAK2/JAK1 |
| --- | --- |
| CCNC(=O)c1ccc(N2CC(CC#N)(n3cc(-c4ncnc5[nH]ccc45)cn3)C2)cn1 [Example 24, 5-{3-(Cyanomethyl)-3-[4-(7H-pyrrolo[2,3-d]pyrimidin-4-yl)-1H-pyrazol-1-yl]azetidin-1-yl}-N-ethylpyridine-2-carboxamide] | A (A means greater than or equal to 10) |
| C[C@H](NC(=O)c1ccc(N2CC(CC#N)(n3cc(-c4ncnc5[nH]ccc45)cn3)C2)cn1)C1CC1 [Example 11, 5-{3-(Cyanomethyl)-3-[4-(7H-pyrrolo[2,3-d]pyrimidin-4-yl)-1H-pyrazol-1-yl]azetidin-1-yl}-N-[(1S)-1-cyclopropylethyl]pyridine-2-carboxamide] | A (A means greater than or equal to 10) |
| C[C@H](NC(=O)c1ccc(N2CC(CC#N)(n3cc(-c4ccnc5[nH]ccc45)cn3)C2)cn1)C1CC1 [Example 2, 5-{3-(Cyanomethyl)-3-[4-(1H-pyrrolo[2,3-b]pyridin-4-yl)-1H-pyrazol-1-yl]azetidin-1-yl}-N-[(1S)-1-cyclopropylethyl]pyridine-2-carboxamide] | A (A means greater than or equal to 10) |
| CC(C)NC(=O)c1ccc(N2CC(CC#N)(n3cc(-c4ccnc5[nH]ccc45)cn3)C2)c(F)c1 [Example 27, 4-{3-(Cyanomethyl)-3-[4-(1H-pyrrolo[2,3-b]pyridin-4-yl)-1H-pyrazol-1-yl]azetidin-1-yl}-3-fluoro-N-isopropylbenzamide] | A (A means greater than or equal to 10) |
| C[C@@H](NC(=O)c1ccc(N2CC(CC#N)(n3cc(-c4ncnc5[nH]ccc45)cn3)C2)c(F)c1)C1CC1 [Example 4, 4-{3-(Cyanomethyl)-3-[4-(7H-pyrrolo[2,3-d]pyrimidin-4-yl)-1H-pyrazol-1-yl]azetidin-1-yl}-N-[(1R)-1-cyclopropylethyl]-3-fluorobenzamide] | A (A means greater than or equal to 10) |
| C[C@@H](NC(=O)c1cnc(N2CC(CC#N)(n3cc(-c4ncnc5[nH]ccc45)cn3)C2)cn1)C(F)(F)F [Example 30, 5-{3-(Cyanomethyl)-3-[4-(7H-pyrrolo[2,3-d]pyrimidin-4-yl)-1H-pyrazol-1-yl]azetidin-1-yl}-N-[(1R)-2,2,2-trifluoro-1-methylethyl]pyrazine-2-carboxamide] | A (A means greater than or equal to 10) |
